Legend:
[1] = roseburia intestinalis, 12 h, 2 µM
Description: The drug is tested on Roseburia intestinalis strain: L1-82 for biotransformation. The drug concentrations were measured before and after a 12-h incubation by liquid-chromatography-coupled mass spectrometry (LC–MS)

[2] = The drug is tested on Anaerococcus hydrogenalis strain: DSM7454 for biotransformation. The drug concentrations were measured before and after a 12-h incubation by liquid-chromatography-coupled mass spectrometry (LC–MS); conditions: 2 µM
[3] = The drug is tested on Bifidobacterium ruminantium strain: fecal isolate for biotransformation. The drug concentrations were measured before and after a 12-h incubation by liquid-chromatography-coupled mass spectrometry (LC–MS); conditions: 2 µM
[4] = The drug is tested on Bacteroides uniformis strain: ATCC8492 for biotransformation. The drug concentrations were measured before and after a 12-h incubation by liquid-chromatography-coupled mass spectrometry (LC–MS); conditions: 2 µM
[5] = The drug is tested on Alistipes indistinctus strain: DSM22520 for biotransformation. The drug concentrations were measured before and after a 12-h incubation by liquid-chromatography-coupled mass spectrometry (LC–MS); conditions: 2 µM
[6] = The drug is tested on Blautia hansenii strain: DSM20583 for biotransformation. The drug concentrations were measured before and after a 12-h incubation by liquid-chromatography-coupled mass spectrometry (LC–MS); conditions: 2 µM
[7] = bacteroides thetaiotaomicron, 12 h, 2 µM
Description: The drug is tested on Bacteroides thetaiotaomicron strain: 7330 for biotransformation. The drug concentrations were measured before and after a 12-h incubation by liquid-chromatography-coupled mass spectrometry (LC–MS)

[8] = bacteroides thetaiotaomicron, 12 h, 2 µM; remark: listed apart in the source
Description: The drug is tested on Bacteroides thetaiotaomicron strain: VPI-5482 for biotransformation. The drug concentrations were measured before and after a 12-h incubation by liquid-chromatography-coupled mass spectrometry (LC–MS)

[9] = The drug is tested on Enterobacter cancerogenus strain: ATCC35316 for biotransformation. The drug concentrations were measured before and after a 12-h incubation by liquid-chromatography-coupled mass spectrometry (LC–MS); conditions: 2 µM
[10] = The drug is tested on Coprococcus comes strain: ATCC27758 for biotransformation. The drug concentrations were measured before and after a 12-h incubation by liquid-chromatography-coupled mass spectrometry (LC–MS); format: ADME; design: dose 2 uM, timepoint 0 vs 12 hours; conditions: 2 µM
[11] = The drug is tested on Bacteroides finegoldii strain: DSM17565 for biotransformation. The drug concentrations were measured before and after a 12-h incubation by liquid-chromatography-coupled mass spectrometry (LC–MS); conditions: 2 µM
[12] = The drug is tested on Bacteroides coprophilus strain: DSM18228 for biotransformation. The drug concentrations were measured before and after a 12-h incubation by liquid-chromatography-coupled mass spectrometry (LC–MS); conditions: 2 µM
[13] = The drug is tested on Bacteroides dorei strain: DSM17855 for biotransformation. The drug concentrations were measured before and after a 12-h incubation by liquid-chromatography-coupled mass spectrometry (LC–MS); conditions: phocaeicola dorei, 2 µM
[14] = The drug is tested on Bacteroides vulgatus strain: ATCC8482 for biotransformation. The drug concentrations were measured before and after a 12-h incubation by liquid-chromatography-coupled mass spectrometry (LC–MS); conditions: phocaeicola vulgatus, 2 µM
[15] = The drug is tested on Parabacteroides merdae strain: ATCC43184 for biotransformation. The drug concentrations were measured before and after a 12-h incubation by liquid-chromatography-coupled mass spectrometry (LC–MS); conditions: 2 µM
[16] = The drug is tested on Enterococcus faecalis strain: V583 for biotransformation. The drug concentrations were measured before and after a 12-h incubation by liquid-chromatography-coupled mass spectrometry (LC–MS); conditions: 2 µM
[17] = The drug is tested on Clostridium ramosum strain: DSM1402 for biotransformation. The drug concentrations were measured before and after a 12-h incubation by liquid-chromatography-coupled mass spectrometry (LC–MS); conditions: thomasclavelia ramosa, 2 µM
[18] = bacteroides fragilis, 12 h, 2 µM
Description: The drug is tested on Bacteroides fragilis strain: DS-208 for biotransformation. The drug concentrations were measured before and after a 12-h incubation by liquid-chromatography-coupled mass spectrometry (LC–MS)

[19] = The drug is tested on Escherichia coli strain: BW25113 for biotransformation. The drug concentrations were measured before and after a 12-h incubation by liquid-chromatography-coupled mass spectrometry (LC–MS); conditions: 2 µM

SMILES | Bacterial Biotransformation [1] | Bacterial Biotransformation [2] | Bacterial Biotransformation [3] | Bacterial Biotransformation [4] | Bacterial Biotransformation [5] | Bacterial Biotransformation [6] | Bacterial Biotransformation [7] | Bacterial Biotransformation [8] | Bacterial Biotransformation [9] | Bacterial Biotransformation [10] | Bacterial Biotransformation [11] | Bacterial Biotransformation [12] | Bacterial Biotransformation [13] | Bacterial Biotransformation [14] | Bacterial Biotransformation [15] | Bacterial Biotransformation [16] | Bacterial Biotransformation [17] | Bacterial Biotransformation [18] | Bacterial Biotransformation [19]
O=C(O)COCCN1CCN(C(c2ccccc2)c2ccc(Cl)cc2)CC1 (stereo not given) [CETIRIZINE] | Compound NOT metabolized | Compound NOT metabolized | Compound NOT metabolized | Compound metabolized | Compound metabolized | Compound metabolized | Compound metabolized | Compound metabolized | Compound NOT metabolized | Compound NOT metabolized | Compound metabolized | Compound metabolized | Compound metabolized | Compound metabolized | Compound NOT metabolized | Compound NOT metabolized | Compound NOT metabolized | Compound metabolized | –
CCCC1O[C@@H]2C[C@H]3[C@@H]4CCC5=CC(=O)C=C[C@]5(C)[C@H]4[C@@H](O)C[C@]3(C)[C@]2(C(=O)CO)O1 (stereo not given in full) [BUDESONIDE] | – | Compound NOT metabolized | Compound NOT metabolized | – | Compound NOT metabolized | Compound metabolized | Compound NOT metabolized | Compound metabolized | Compound NOT metabolized | Compound NOT metabolized | Compound NOT metabolized | Compound NOT metabolized | Compound metabolized | Compound metabolized | Compound metabolized | Compound NOT metabolized | – | – | Compound NOT metabolized
CNCCC(Oc1ccc(C(F)(F)F)cc1)c1ccccc1 (stereo not given) [FLUOXETINE] | Compound metabolized | Compound NOT metabolized | Compound metabolized | Compound metabolized | Compound metabolized | Compound metabolized | Compound metabolized | Compound metabolized | Compound metabolized | – | Compound NOT metabolized | Compound metabolized | Compound metabolized | Compound metabolized | Compound metabolized | Compound metabolized | Compound metabolized | Compound metabolized | Compound metabolized
CN/C(=N/CCSCc1nc[nH]c1C)NC#N [CIMETIDINE] | Compound NOT metabolized | Compound NOT metabolized | Compound NOT metabolized | Compound metabolized | Compound NOT metabolized | Compound NOT metabolized | – | Compound metabolized | Compound NOT metabolized | Compound NOT metabolized | – | – | Compound metabolized | – | Compound NOT metabolized | Compound NOT metabolized | Compound NOT metabolized | – | Compound NOT metabolized
O=C1CN2Cc3c(ccc(Cl)c3Cl)N=C2N1 [ANAGRELIDE] | – | Compound NOT metabolized | – | – | Compound NOT metabolized | Compound metabolized | Compound NOT metabolized | Compound NOT metabolized | Compound NOT metabolized | Compound NOT metabolized | Compound NOT metabolized | Compound NOT metabolized | Compound metabolized | – | – | Compound NOT metabolized | Compound NOT metabolized | Compound NOT metabolized | –
CCc1oc2ccccc2c1C(=O)c1cc(Br)c(O)c(Br)c1 [BENZBROMARONE] | Compound NOT metabolized | Compound NOT metabolized | Compound NOT metabolized | Compound NOT metabolized | Compound NOT metabolized | Compound NOT metabolized | Compound NOT metabolized | Compound NOT metabolized | Compound NOT metabolized | Compound NOT metabolized | Compound NOT metabolized | Compound NOT metabolized | – | Compound NOT metabolized | Compound NOT metabolized | Compound NOT metabolized | Compound NOT metabolized | Compound NOT metabolized | Compound NOT metabolized
CC(C)(C#N)c1cc(Cn2cncn2)cc(C(C)(C)C#N)c1 [ANASTROZOLE] | Compound NOT metabolized | Compound NOT metabolized | Compound metabolized | Compound metabolized | Compound NOT metabolized | Compound metabolized | Compound metabolized | Compound metabolized | Compound NOT metabolized | Compound NOT metabolized | Compound NOT metabolized | Compound metabolized | – | Compound metabolized | Compound metabolized | Compound NOT metabolized | Compound NOT metabolized | Compound NOT metabolized | –
CSc1ccc2c(c1)C(N1CCN(C)CC1)Cc1ccccc1S2.O=C(O)/C=C\C(=O)O (stereo not given) | Compound NOT metabolized | – | Compound NOT metabolized | Compound metabolized | Compound NOT metabolized | Compound NOT metabolized | Compound NOT metabolized | Compound NOT metabolized | Compound NOT metabolized | – | Compound NOT metabolized | Compound NOT metabolized | Compound NOT metabolized | Compound NOT metabolized | Compound NOT metabolized | Compound NOT metabolized | Compound NOT metabolized | Compound NOT metabolized | –
Clc1ccc(Cn2c(CN3CCCC3)nc3ccccc32)cc1 [CLEMIZOLE] | Compound NOT metabolized | Compound NOT metabolized | Compound NOT metabolized | Compound NOT metabolized | Compound NOT metabolized | Compound metabolized | Compound NOT metabolized | Compound NOT metabolized | Compound NOT metabolized | Compound NOT metabolized | Compound NOT metabolized | – | – | Compound NOT metabolized | Compound NOT metabolized | Compound NOT metabolized | Compound NOT metabolized | Compound NOT metabolized | –

From ChEMBL document CHEMBL5303573, “Mapping human microbiome drug metabolism by gut bacteria and their genes” (Nature, 2019)
